Columns and labels:
[1] = system: uveal melanoma and hematologic cancer cell lines; conditions: FIG. 1; 0 to 10 micromolar; uveal melanoma and hematologic cancer cell lines vs other tested cell lines
[2] = system: Uveal melanoma cell lines, 92-1 or MP41; assay: Comparison with clinical PKC and MEK inhibitors in uveal melanoma cell lines (Cell-titer glo, 3 days); assay type: cell-based; conditions: FIG. 2, vs LXS196 and Selumetinib
BRG-1 = BRG-1 (Homo sapiens, UniProt P51532); assay: ATPase catalytic activity of BRG-1 (ADP-Glo in vitro biochemical assay); conditions: for BRG1 Max % Inhibition: Table 6
BRM = BRM (Homo sapiens, UniProt P51531); assay: ATPase catalytic activity of BRM (ADP-Glo in vitro biochemical assay); conditions: for BRM Max % Inhibition: Table 6
Sequence of BRM (P51531 whole entry): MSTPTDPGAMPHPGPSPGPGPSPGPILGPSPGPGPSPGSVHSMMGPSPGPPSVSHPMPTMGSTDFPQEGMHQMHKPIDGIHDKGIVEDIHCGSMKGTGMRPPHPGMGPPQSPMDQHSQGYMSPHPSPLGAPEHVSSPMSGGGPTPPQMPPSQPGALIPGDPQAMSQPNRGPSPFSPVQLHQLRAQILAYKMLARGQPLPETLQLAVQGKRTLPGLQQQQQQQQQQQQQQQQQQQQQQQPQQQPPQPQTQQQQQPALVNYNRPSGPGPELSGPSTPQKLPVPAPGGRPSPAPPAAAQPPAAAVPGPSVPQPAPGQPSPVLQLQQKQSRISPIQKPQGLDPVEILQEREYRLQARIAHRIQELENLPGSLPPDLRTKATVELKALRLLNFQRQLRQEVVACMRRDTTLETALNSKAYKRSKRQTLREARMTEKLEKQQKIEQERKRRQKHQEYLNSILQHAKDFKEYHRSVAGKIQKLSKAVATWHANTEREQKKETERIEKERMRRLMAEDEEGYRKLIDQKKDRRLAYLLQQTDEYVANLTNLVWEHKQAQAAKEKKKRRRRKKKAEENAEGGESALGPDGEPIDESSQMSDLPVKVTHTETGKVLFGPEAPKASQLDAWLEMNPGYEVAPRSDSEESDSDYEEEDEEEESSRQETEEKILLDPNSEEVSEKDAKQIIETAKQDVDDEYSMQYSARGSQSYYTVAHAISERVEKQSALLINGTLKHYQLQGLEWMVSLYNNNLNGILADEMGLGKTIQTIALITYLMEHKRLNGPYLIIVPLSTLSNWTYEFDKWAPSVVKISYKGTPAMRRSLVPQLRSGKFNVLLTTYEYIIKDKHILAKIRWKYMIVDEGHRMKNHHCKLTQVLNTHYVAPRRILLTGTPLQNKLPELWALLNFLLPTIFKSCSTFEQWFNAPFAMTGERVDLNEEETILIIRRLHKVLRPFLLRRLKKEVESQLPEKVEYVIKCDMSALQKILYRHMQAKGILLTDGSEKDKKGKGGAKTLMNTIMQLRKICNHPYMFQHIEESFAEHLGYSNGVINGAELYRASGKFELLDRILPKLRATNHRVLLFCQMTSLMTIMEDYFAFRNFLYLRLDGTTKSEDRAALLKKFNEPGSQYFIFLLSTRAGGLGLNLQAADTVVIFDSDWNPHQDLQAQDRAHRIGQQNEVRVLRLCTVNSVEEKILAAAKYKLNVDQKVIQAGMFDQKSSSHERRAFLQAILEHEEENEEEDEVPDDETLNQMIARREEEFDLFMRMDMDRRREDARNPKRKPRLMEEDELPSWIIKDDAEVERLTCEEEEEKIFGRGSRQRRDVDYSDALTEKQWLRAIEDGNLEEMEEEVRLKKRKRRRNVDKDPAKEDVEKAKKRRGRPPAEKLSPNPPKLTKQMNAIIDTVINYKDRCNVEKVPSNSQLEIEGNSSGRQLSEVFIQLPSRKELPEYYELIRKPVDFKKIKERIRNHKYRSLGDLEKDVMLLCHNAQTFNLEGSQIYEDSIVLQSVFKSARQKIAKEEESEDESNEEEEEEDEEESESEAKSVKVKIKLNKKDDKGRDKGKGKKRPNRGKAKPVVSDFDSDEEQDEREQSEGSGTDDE

Sequence of BRG-1 (P51532 whole entry): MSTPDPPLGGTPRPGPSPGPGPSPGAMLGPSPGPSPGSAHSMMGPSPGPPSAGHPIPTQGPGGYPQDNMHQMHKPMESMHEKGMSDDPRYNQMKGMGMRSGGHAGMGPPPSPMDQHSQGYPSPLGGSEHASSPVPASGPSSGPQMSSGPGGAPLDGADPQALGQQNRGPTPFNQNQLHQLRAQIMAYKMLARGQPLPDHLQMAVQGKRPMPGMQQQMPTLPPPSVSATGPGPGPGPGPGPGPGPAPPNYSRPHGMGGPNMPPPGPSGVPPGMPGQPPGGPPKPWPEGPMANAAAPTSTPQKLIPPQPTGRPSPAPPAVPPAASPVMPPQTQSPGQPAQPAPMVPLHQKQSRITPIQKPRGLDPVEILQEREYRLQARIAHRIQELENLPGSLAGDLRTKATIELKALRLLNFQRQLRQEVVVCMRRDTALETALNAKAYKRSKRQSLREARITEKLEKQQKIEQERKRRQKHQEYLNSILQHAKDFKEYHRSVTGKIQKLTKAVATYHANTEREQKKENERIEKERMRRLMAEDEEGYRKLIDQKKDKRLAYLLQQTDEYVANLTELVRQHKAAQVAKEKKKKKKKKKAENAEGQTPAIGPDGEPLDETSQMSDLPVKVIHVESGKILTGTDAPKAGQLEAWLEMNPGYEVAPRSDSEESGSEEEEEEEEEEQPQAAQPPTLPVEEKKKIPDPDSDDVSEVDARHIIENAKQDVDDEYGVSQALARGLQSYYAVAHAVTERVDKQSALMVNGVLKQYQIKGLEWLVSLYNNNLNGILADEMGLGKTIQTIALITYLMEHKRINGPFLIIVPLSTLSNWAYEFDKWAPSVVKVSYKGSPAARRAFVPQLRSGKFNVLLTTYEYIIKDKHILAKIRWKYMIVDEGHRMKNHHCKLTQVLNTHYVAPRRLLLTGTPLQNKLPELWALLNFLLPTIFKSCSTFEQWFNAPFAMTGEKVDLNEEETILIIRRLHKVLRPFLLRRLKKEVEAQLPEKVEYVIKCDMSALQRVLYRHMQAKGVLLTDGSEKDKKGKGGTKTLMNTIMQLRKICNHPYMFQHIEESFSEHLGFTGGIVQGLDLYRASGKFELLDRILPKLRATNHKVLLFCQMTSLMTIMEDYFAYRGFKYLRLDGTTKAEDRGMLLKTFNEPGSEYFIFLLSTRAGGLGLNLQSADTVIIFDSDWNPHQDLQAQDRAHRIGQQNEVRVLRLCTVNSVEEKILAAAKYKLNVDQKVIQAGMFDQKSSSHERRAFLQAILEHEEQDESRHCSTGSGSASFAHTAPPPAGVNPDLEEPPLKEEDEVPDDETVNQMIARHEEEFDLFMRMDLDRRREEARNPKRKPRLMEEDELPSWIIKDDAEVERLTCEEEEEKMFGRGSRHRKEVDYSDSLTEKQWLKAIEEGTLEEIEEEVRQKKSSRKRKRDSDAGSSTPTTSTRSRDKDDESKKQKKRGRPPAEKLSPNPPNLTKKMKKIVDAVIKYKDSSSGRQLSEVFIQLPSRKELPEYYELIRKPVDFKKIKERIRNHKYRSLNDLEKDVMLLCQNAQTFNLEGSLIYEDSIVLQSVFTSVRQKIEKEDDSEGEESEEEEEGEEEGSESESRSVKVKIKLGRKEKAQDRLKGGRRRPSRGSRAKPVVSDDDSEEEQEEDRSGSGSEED

| SMILES | sensitivity of cell lines to growth inhibition (GI50) [1] | growth inhibition of uveal melanoma cells ([2]; 0 to 10 micromolar, 3 days) | onset of inhibition [2] | IC50 (BRG-1) | BRG1 Max % Inhibition (BRG-1) | IC50 (BRM) | BRM Max % Inhibition (BRM) |
| --- | --- | --- | --- | --- | --- | --- | --- |
| CSCC[C@H](NC(=O)c1ccc(N)cc1)C(=O)Nc1nc(-c2cccc(-c3ccncc3)c2)cs1 [Compound 87, (S)-4-amino-N-(4-(methylthio)-1-oxo-1-((4-(3-(pyridin-4-yl)phenyl)thiazol-2-yl)amino)butan-2-yl)benzamide] | more sensitive to BRG1/BRM inhibition than the other tested cell lines | comparable growth inhibition of uveal melanoma cells as the clinical PKC and MEK inhibitors | faster onset of inhibition than the clinical PKC and MEK inhibitors |  |  |  |  |
| Cn1ncc2ccc(-c3csc(NC(=O)CNC(=O)c4ccc(N)cc4)n3)cc21 [Compound 228, 4-amino-N-[2-[[4-(1-methylindazol-6-yl)thiazol-2-yl]amino]-2-oxo-ethyl]benzamide] |  |  |  | 100 to 1000 nM | >90% | 100 to 1000 nM | >90% |
| CC(C)(O)Cn1ccc(-c2cccc(-c3csc(NC(=O)CNC(=O)c4ccc(N)cc4)n3)c2)n1 [Compound 229, 4-amino-N-[2-[[4-[3-[1-(2-hydroxy-2-methyl-propyl)pyrazol-3-yl]phenyl]thiazol-2-yl]amino]-2-oxo-ethyl]benzamide] |  |  |  | 100 to 1000 nM | >95% | 100 to 1000 nM | >95% |
| Nc1ccc(C(=O)NCC(=O)Nc2nc(-c3cccc(COC4CCOCC4)c3)cs2)cc1 [Compound 230, 4-amino-N-[2-oxo-2-[[4-[3-(tetrahydropyran-4-yloxymethyl)phenyl]thiazol-2-yl]amino]ethyl]benzamide] |  |  |  | 100 to 1000 nM | >90% | 100 to 1000 nM | >95% |
| COC(C)(C)Cn1ccc(-c2cccc(-c3csc(NC(=O)CNC(=O)c4ccc(N)cc4)n3)c2)n1 [Compound 232, 4-amino-N-[2-[[4-[3-[1-(2-methoxy-2-methyl-propyl)pyrazol-3-yl]phenyl]thiazol-2-yl]amino]-2-oxo-ethyl]benzamide] |  |  |  | 100 to 1000 nM | >80% | 100 to 1000 nM | >80% |
| CN(C)CC[C@H](NC(=O)c1ccc(N)cc1)C(=O)Nc1nc(-c2cccc(-c3ccncc3)c2)cs1 [Compound 233, (S)-4-amino-N-(4-(dimethylamino)-1-oxo-1-((4-(3-(pyridin-4-yl)phenyl)thiazol-2-yl)amino)butan-2-yl)benzamide] |  |  |  | 100 to 1000 nM | >80% | 100 to 1000 nM | >90% |
| Nc1ccc(C(=O)NCC(=O)Nc2nc(-c3cccc(N4CCC[C@@H](O)C4)c3)cs2)cc1 [Compound 234, 4-amino-N-[2-[[4-[3-[(3R)-3-hydroxy-1-piperidyl]phenyl]thiazol-2-yl]amino]-2-oxo-ethyl]benzamide] |  |  |  | 100 to 1000 nM | >90% | 100 to 1000 nM | >90% |
| CC(OC1CCOCC1)c1cccc(-c2csc(NC(=O)CNC(=O)c3ccc(N)cc3)n2)c1 (stereo not shown) [Compound 235, 4-amino-N-[2-oxo-2-[[4-[3-(1-tetrahydropyran-4-yloxyethyl)phenyl]thiazol-2-yl]amino]ethyl]benzamide] |  |  |  | 100 to 1000 nM | >70% | 100 to 1000 nM | >90% |
| Nc1ccc(C(=O)NCC(=O)Nc2nc(-c3cccc(N4CCC[C@H](O)C4)c3)cs2)cc1 [Compound 236, 4-amino-N-[2-[[4-[3-[(3S)-3-hydroxy-1-piperidyl]phenyl]thiazol-2-yl]amino]-2-oxo-ethyl]benzamide] |  |  |  | 100 to 1000 nM | >90% | 100 to 1000 nM | >90% |
| CSCC[C@H](NC(=O)c1ccc(N)cc1)C(=O)Nc1nc(-c2cccc(-c3cccc(CN)c3)c2)cs1 [Compound 237, 4-amino-N-[(1S)-1-[[4-[3-[3-(aminomethyl)phenyl]phenyl]thiazol-2-yl]carbamoyl]-3-methylsulfanyl-propyl]benzamide] |  |  |  | 100 to 1000 nM | >90% | 100 to 1000 nM | >90% |
| CO[C@H]1CCCN(c2cccc(-c3csc(NC(=O)CNC(=O)c4ccc(N)cc4)n3)c2)C1 [Compound 238, 4-amino-N-[2-[[4-[3-[(3S)-3-methoxy-1-piperidyl]phenyl]thiazol-2-yl]amino]-2-oxo-ethyl]benzamide] |  |  |  | 100 to 1000 nM | >95% | 100 to 1000 nM | >90% |
| Nc1ccc(C(=O)NCC(=O)Nc2nc(-c3cccc(C4CCCCO4)c3)cs2)cc1 (stereo not shown) [Compound 239, 4-amino-N-[2-oxo-2-[[4-(3-tetrahydropyran-2-ylphenyl)thiazol-2-yl]amino]ethyl]benzamide] |  |  |  | 100 to 1000 nM | >80% | 100 to 1000 nM | >90% |
| Nc1ccc(C(=O)NCC(=O)Nc2nc(-c3ccc4cncnc4c3)cs2)cc1 [Compound 240, 4-amino-N-[2-oxo-2-[(4-quinazolin-7-ylthiazol-2-yl)amino]ethyl]benzamide] |  |  |  | 100 to 1000 nM | >80% | 100 to 1000 nM | >80% |
| CC(C)(N)Cn1ccc(-c2cccc(-c3csc(NC(=O)CNC(=O)c4ccc(N)cc4)n3)c2)n1 [Compound 241, 4-amino-N-[2-[[4-[3-[1-(2-amino-2-methyl-propyl)pyrazol-3-yl]phenyl]thiazol-2-yl]amino]-2-oxo-ethyl]benzamide] |  |  |  | 100 to 1000 nM | >90% | 100 to 1000 nM | >90% |

Reference: patent US11497752B2, “Compounds and uses thereof” (Foghorn Therapeutics Inc., priority 2018, dated 2022)
